# US9453008B2, “Antithrombotic and antiatherosclerotic agent and method for producing same (variants)” (PROTON OOO, priority 2011, dated 2016)
# Columns and labels:
# [1] = test system: spontaneously hypertensive (SHT) rats; assay: Blood pressure in narcotized SHT rats, intravenous administration; format: in vivo, rat
# Procedure: The experiments were performed on spontaneously hypertensive (SHT) and normotensive (NT) narcotized male rats using intravenous administration of the tested compounds. The ability of the compound to reduce arterial blood pressure (BP) in SHT rats and prevent spasmogenic reactions to noradrenalin (NA) and angiotensin I (AI).
# The compound of formula I was used as a solution in 3% aqueous DMSO. Sodium nitroprusside and nitroglycerin were used as reference drugs.
# The administration of the compound of formula I in dose range 0.01-0.1-0.5 and 1.0 mg/kg has exerted dose-dependent antihypertensive effect ranging in time from 30-40 s to 60 min and more.
# [2] = test system: ADP-induced platelet aggregation; assay: ADP-induced platelet aggregation following intravenous administration in rabbits; format: in vivo, rabbit
# Procedure: FIG. 1 is a graph showing the effect of the compound I and sodium nitroprusside on ADP-induced platelet aggregation following intravenous administration in rabbits (% compared to control).
# (§1) Antiplatelet activity was assessed by the effect of the compound on platelet aggregation of rabbit blood plasma, induced by ADP (adenosine diphosphate) and arachidonic acid. Platelet aggregation was assessed by the change of optical density of plasma. Studies were performed using both intravenous administration, in comparison with sodium nitroprusside, and oral administration, in comparison with acetylsalicylic acid. Compound I was used in concentrations of 10^−3-10^−7 M (parenteral administration) and in 4-8 and 12 mg/kg doses (oral administration).
# In order to make a final conclusion on the ability of the studied compound to inhibit platelet aggregation experiments were performed in conditions of living organism using intravenous and oral administration.
# Compound I and sodium nitroprusside (a reference drug) have both inhibited the process of platelet aggregation. However, there were considerable quantitative and temporal differences in their effects. […] This was the only time point where we managed to observe its activity. After 1 hour the effect disappeared.
# [3] = test system: ADP-induced platelet aggregation; assay: ADP-induced platelet aggregation following peroral administration in rabbits; format: in vivo, rabbit
# Procedure: FIG. 2 is a graph showing the changes in platelet functional activity following peroral administration of the compound I in a model of ADP-induced aggregation in rabbits (% compared to control).
# as §1
# [4] = Cumulation after 28 days administration; format: in vivo
# Text: Acute toxicity of the compound in mice in internal administration is 8.9±0.75 g/kg, cumulation after 28 days administration is weak (lethality less than 50%).
# [5] = test system: platelet aggregation induced by arachidonic acid; assay: Platelet aggregation induced by arachidonic acid following peroral administration in rabbits; format: in vivo, rabbit
# Procedure: FIG. 3 is a graph showing the changes in platelet aggregation, induced by arachidonic acid, following peroral administration of the compound I in rabbits (% compared to control).
# as §1
# Using arachidonic acid (AA) as an aggregation inductor, the experiments were performed in conditions of oral administration. We consider such experimentation justified by the possibility of different routes of administration for the tested compound, not only intravenous one (unlike sodium nitroprusside).
compound,measurement,setting,value
"CN1CC(CO)O/C1=C(C#N)/C=C1/Nc2ccccc2C1=O (stereo not shown) [Compound I, 2-[2-Cyano-2-[5-(hydroxymethyl)-3-methyl-1,3-oxazolidin-2-ylidene]ethylidene]indolin-3-one]",Duration of BP reduction,[1]; 0.01 mg/kg dose intravenous,30 s
same,Reduction of BP,[1]; 0.01 mg/kg dose intravenous,10-12 mmHg
same,"Reduction of BP, mmHg (Δ)","[1]; 0.01 mg/kg intravenously, 10-20 s",−12 ± 5 mmHg
same,"Reduction of BP, mmHg (Δ)","[1]; 0.1 mg/kg intravenously, 10-20 s",−15 ± 5 mmHg
same,"Reduction of BP, mmHg (Δ)","[1]; 0.1 mg/kg intravenously, 5 min",−20 ± 7 mmHg
same,"Reduction of BP, mmHg (Δ)","[1]; 0.5 mg/kg intravenously, 10-20 s",−10 ± 3 mmHg
same,"Reduction of BP, mmHg (Δ)","[1]; 0.5 mg/kg intravenously, 5 min",−20 ± 8 mmHg
same,"Reduction of BP, mmHg (Δ)","[1]; 0.5 mg/kg intravenously, 30 min",−25 ± 8 mmHg
same,"Reduction of BP, mmHg (Δ)","[1]; 0.5 mg/kg intravenously, 60 min",−30 ± 7 mmHg
same,Duration of BP reduction,[1]; 1.0 mg/kg dose intravenous,3600 s
same,Reduction of BP (maximal effect),[1]; 1.0 mg/kg dose intravenous,25-30 mmHg
same,"Reduction of BP, mmHg (Δ)","[1]; 1.0 mg/kg intravenously, 10-20 s",−12 ± 3 mmHg
same,"Reduction of BP, mmHg (Δ)","[1]; 1.0 mg/kg intravenously, 5 min",−25 ± 7 mmHg
same,"Reduction of BP, mmHg (Δ)","[1]; 1.0 mg/kg intravenously, 30 min",−30 ± 7 mmHg
same,"Reduction of BP, mmHg (Δ)","[1]; 1.0 mg/kg intravenously, 60 min",−30 ± 8 mmHg
same,"Reduction of BP, mmHg (Δ)","[1]; 1.0 mg/kg intravenously, 120 min",−30 ± 8 mmHg
same,Inhibition of induced functional activity of platelets compared with sodium nitroprusside,[2]; intravenous administration to rabbits,"as potent as that of sodium nitroprusside, but persists for a longer time"
same,Time at which inhibition of platelet aggregation stopped/disappeared,"[2]; intravenous, rabbits",3 h
same,Time of maximal potency of inhibition of platelet aggregation,"[2]; intravenous, rabbits",60 min
same,Duration of effect on ADP-induced aggregation,[3]; enteral administration,about 3 hours
same,Inhibition of ADP-induced aggregation (maximal potency),"[3]; peroral, rabbits, after 2 hours",40%
same,Inhibition of ADP-induced aggregation,"[3]; peroral, rabbits, after the first hour",30%
same,Inhibition of ADP-induced aggregation (as a tendency),"[3]; peroral, rabbits, persisting for all 4 hours of observation",15-25%
same,Lethality,[4],less than 50%
same,Effect on platelet aggregation (statistically significant),[5]; after 2 hours (inductor not restated),32%
same,Effect on platelet aggregation,[5]; at 4 hour (inductor not restated),38%
same,Effect on platelet aggregation (as a tendency),[5]; end of the first hour (inductor not restated),up to 10%
same,Reduction of platelet aggregation induced by arachidonic acid,"[5]; oral, rabbits, 1 hour after the administration",reduced by a third
same,Action of AA at the end of the observation period,"[5]; oral, rabbits, 4 hours",comparable to the control
same,Inhibition of the action of the inductor (AA),"[5]; oral, rabbits, after 2 hour",by over two times
same,Duration of effect on AA-induced aggregation,[5]; per os,2 to 4 h
